Experimental data reported in patent US5358945A, “Pyrimidine compound and pharmaceutically acceptable salts thereof” (Mitsui Petrochemical Industries, Ltd., priority 1990, dated 1994).

How the values were obtained:
mouse = assay: Acute toxicity in mouse (Table 10); type: in vivo
Experimental: The acute toxicity of the compounds of the invention was examined by the following method.
Male ddy-strain 5-week old mice, 4-6 per group, were used as experimental animals. Each of the compounds was dissolved or suspended in saline and administered perorally (p.o.) or intraperitoneally (i.p.), and the toxicity of the compound was assessed 24 hours after the administration.

Mouse neuro 2a cells = assay: Neurite outgrowth of mouse neuroblastoma neuro 2a cells (Table 7); type: cell-based; conditions: mean ± S.D.
Experimental: The biological activities in vitro of the compounds of formula (I) on cells of the nervous system were tested. The cells tested were mouse neuroblastoma cell line neuro-2a (Dainippon Pharmaceutical Co., Ltd.) which have been established as the cells of the nervous system. The above nerve cells were grown in an incubator at 37° C. in the presence of 5% carbon dioxide gas exponentially, and the cultured for a certain period of time together with the compounds of formula (I).
The effects of the compounds of this invention on neuroblastoma cells were examined by the following method.
Mouse neuro 2a cells in the logarithmic growth period in the Dulbecco's modified Eagle's medium [DMEM, containing 100 units/ml of penicillin G sodium and 100 micrograms/ml of streptomycin sulfate] containing 10% of FCS were seeded in a 48-well plate so that the number of cells was 1,000 cells/well, and cultured for one day in 0.25 ml of the culture fluid in each well in an incubator containing 5% of carbon dioxide gas in air at 37° C. The medium was replaced by a medium containing each antibiotics and FCS and the cells were further cultured for 24 hours. Then, a 4% aqueous glutaraldehyde solution in the same amount as a medium (0.25 ml) was added, and the culture was left to stand at room temperature for 2 hours to fix the cells. After washing with water, a 0.05% aqueous solution of methylene blue was added to stain the cells. Under a microscope, the number of cells containing outgrown neurites (cells having at least one neurite with a length of at least two times as large as the long diameter of the cell) was counted visually, and the proportion of these cells in the entire cells was calculated. The well was observed over 5 or more visual fields (at least 2% of the entire surface area of the well) continuous to the left and right from a mark put at the center of the well, and more than 200 cells was counted. One drug compound was used in 6 different concentrations at most, and three runs were conducted for each concentration.

[1] = system: Mouse neuroblastoma cells NS-20Y; assay: Neurite appearance in mouse neuroblastoma NS-20Y cells (Table 8); type: cell-based;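 note: cells grown in polyornithine-coated dishes, with timing counted from the start of culture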
[2] = i.p., 24 hours after administration

Structure (SMILES) | Estimated LD50 (mouse; [2]) | Ratio of the number of cells having neurites with a length of at least two times as large as the diameter of cells to the total number of cells (Mouse neuro 2a cells; 0.01 mM) | Ratio of the number of cells having neurites with a length of at least two times as large as the diameter of cells to the total number of cells (Mouse neuro 2a cells; 0.1 mM) | The number of cells in which neurites appeared/Total number of cells ([1]; 24 hour, 0.2 mM) | The number of cells in which neurites appeared/Total number of cells ([1]; 48 hour, 0.2 mM) | Estimated LD50 (mouse; in vivo, ip) | Ratio of the number of cells having neurites with a length of at least two times as large as the diameter of cells to the total number of cells (Mouse neuro 2a cells; 0.3 mM) | The number of cells in which neurites appeared/Total number of cells ([1]; 24 hour, 0.1 mM) | The number of cells in which neurites appeared/Total number of cells ([1]; 48 hour, 0.1 mM) | Ratio of the number of cells having neurites with a length of at least two times as large as the diameter of cells to the total number of cells (Mouse neuro 2a cells; 1 mM) | The number of cells in which neurites appeared/Total number of cells ([1]; 24 hour, 0.5 mM) | The number of cells in which neurites appeared/Total number of cells ([1]; 48 hour, 0.5 mM) | Ratio of the number of cells having neurites with a length of at least two times as large as the diameter of cells to the total number of cells (Mouse neuro 2a cells; 0.03 mM)
O=C1CCCN1c1ccnc(N2CCC(Cc3ccccc3)CC2)n1 [Compound 368] | > 500 mg/kg | 3.4 ± 0.3% | 14.4 ± 1.7% | 6/50 | 2/50 |  |  |  |  |  |  |  | 
CC1CCCCN1c1nccc(N2CCCC2=O)n1 (centres unmarked) [Compound 328] |  | 3.9 ± 0.9% |  |  |  | 250 to 500 mg/kg | 5.6 ± 1.7% | 3/50 | 3/50 |  |  |  | 
CC(=O)c1ccc(C(=O)N(C)c2ccnc(N3CCCCC3)n2)cc1 [Compound 208] |  |  |  | 2/50 | 6/50 | > 1000 mg/kg | 7.9 ± 0.6% |  |  | 12.7 ± 3.0% | 3/50 | 5/50 | 
CC1CC(C)CN(c2nccc(N3CCCC3=O)n2)C1 (centres unmarked) [Compound 344] |  | 5.6 ± 1.6% | 7.5 ± 3.3% |  |  | 250 to 500 mg/kg | 10.4 ± 3.4% | 3/50 | 3/50 | 12.5 ± 1.3% |  |  | 
CN(C(=O)c1ccccc1)c1ccnc(N2CCc3ccccc32)n1 [Compound 104] | > 1000 mg/kg |  | 5.2 ± 2.9% | 3/50 | 4/50 |  |  |  |  |  | 4/50 | 3/50 | 3.4 ± 1.0%
CC1CCCN(c2nccc(N3CCCC3=O)n2)C1 (centres unmarked) [Compound 336] |  |  | 5.7 ± 1.6% |  |  | 250 to 500 mg/kg | 21.3 ± 3.0% | 3/50 | 5/50 | 21.2 ± 1.6% |  |  | 4.0 ± 1.0%
O=C1CCCN1c1ccnc(N2CCCCC2)n1 [Compound 273] | > 500 mg/kg | 5.3 ± 0.8% | 7.7 ± 2.0% | 15/50 | 16/50 |  | 24.0 ± 3.2% | 10/50 | 8/50 | 10.3 ± 4.0% | 18/50 | 22/50 | 
CN(C(=O)c1ccc(C(F)(F)F)cc1)c1ccnc(N2CCC(c3ccccc3)CC2)n1.Cc1ccc(S(=O)(=O)O)cc1 [Compound 112, 4-(N-methyl-4-trifluoromethylbenzoylamino)-2-(4-phenylpiperidino) pyrimidine p-toluenesulfonate] | > 1000 mg/kg |  | 43.3 ± 1.8% |  |  |  | 21.6 ± 3.3% | 3/50 | 2/50 | 10.0 ± 3.8% |  |  | 5.9 ± 0.9%
CN(C(=O)c1ccc(S(=O)(=O)F)cc1)c1ccnc(N2CCC(c3ccccc3)CC2)n1 [Compound 136] | > 1000 mg/kg |  | 5.4 ± 1.7% |  | 3/50 |  | 10.3 ± 0.2% |  |  | 11.8 ± 1.4% | 4/50 |  | 5.2 ± 1.8%
O=C1CCCN1c1ccnc(N2CCCC2)n1 [Compound 320] | > 500 mg/kg | 4.2 ± 1.9% | 4.2 ± 0.3% |  |  |  | 11.0 ± 0.8% | 5/50 |  | 10.7 ± 4.7% | 6/50 | 3/50 | 
